These results are taken from US7303881B2, “Antigen delivery compositions and methods of use” (priority 2004, dated 2007).

The test system of one assay is DC 2.4 cells. Kind of assay: Expression of CD80 on DC 2.4 cells, cationic lipid head group and chain length. The class given is cell-based. An excerpt: Both hydrophilic head and the lipophilic tail of the lipids have significant effect on this ability. […] The effect of the hydrocarbon tail region of the lipids on the DC cell stimulation also was systematically investigated (FIG. 8).

The subject of assay [1] is EL4 cells pulsed with E7 peptide. Kind of assay: Chromium release CTL assay after LPD/E7 vaccination. The class given is in vivo, C57BL/6 mice. The conditions noted are these: 20 μg E7 peptide, IV and SC, days 0 and 5. As for the experimental part:
For comparison, mice were injected with 20 μg E7 peptide in PBS or encapsulated in SL liposomes. Five days after the final vaccination, splenocytes were collected, and used as effector cells in a chromium release assay. Consistent with previous reports, antigen containing SL liposomes induced significant levels of CTL activity (61% specific lysis) following SC injection only.
Cytolytic lymphocyte activity was measured using standard ^51Cr-release assays. Splenocytes were collected and cultured in RPMI supplemented with 10% FBS, 50 U/ml penicillin/streptomycin, 2 mM L-glutamine, 1 mM sodium pyruvate, 2 mM nonessential amino acids, 40 U/ml IL2, and 200 ng/ml MHC class I restricted E7 peptide for 4 days. Effector cells were plated into 96-well plates at various effector-to-target (E:T) cell ratios. Targets used were either EL4 cells pulsed with E7 peptide or non-pulsed EL4 cells. Targets were labeled with 200 μCi ^51Cr (NEN Life Sciences, Boston Mass.) for 18 h at 37° C. Before mixing with effectors, the targets were washed two times with medium, and resuspended at 2×10^5 cells/ml. […] Specific lysis was calculated using the following equation: % specific lysis=(experimental release−spontaneous release)/(maximum release−spontaneous release)×100. […]

The next assay concerns TC-1 cells. Kind of assay: Metastatic tumor model (i.p. TC-1 cells) after vaccination, survival and TC-1 rechallenge. Conditions: 10 μg E7 peptide in PBS days 0 and 5; 1×10^6 TC-1 cells day 10. The class given is in vivo, mice.
A further assay deals with tumor. The assay is described as follows: In vivo tumor therapy with LPD/E7 and formulations of LPD components. Conditions: 20 days after treatment; tumor injected 6 days before onset of treatment. On the set-up: species or system mice. An excerpt: FIG. 9. Tumor growth kinetics on mice treated with LPD/E7 and other different formulations.
It is speculated that by condensing DNA, protamine helped to bring DNA inside the liposomes. E7 peptide was thought to bind to DNA via electrostatic interaction (Dileo et al., 2003). […] On the other hand, E7might only be loosely bound in the LD/E7 particles.

As for `CCCCCCCCCCCC(=O)OC[C@H](COP(=O)(OCC)OCC[N+](C)(C)C)OC(=O)CCCCCCCCCCC` (stereo partly drawn) [DLEPC-12:0, 1,2-dilauroyl-sn-glycero-3-ethylphosphocholine], the “Stimulation of CD 80 expression” value in the assay with DC 2.4 cells is listed as “more potent”.
On the same count and under the same terms, in the case of `CCCCCCCCCCCCCC(=O)OCC(COP(=O)(OCC)OCC[N+](C)(C)C)OC(=O)CCCCCCCCCCCCC` (stereo not drawn) [DMEPC-14:0, 1,2-dimyristoyl-sn-glycero-3-ethylphosphocholine] it was “more potent”; in that of `CCCCCCCC/C=C\CCCCCCCC(=O)OC[C@@H](COP(=O)(OCC)OCC[N+](C)(C)C)OC(=O)CCCCCCC/C=C\CCCCCCCC` (stereo partly drawn) [DOEPC-18:1, 1,2-dioleoyl-sn-glycero-3-ethylphosphocholine], “more potent”; in that of `CCCCCCCCCCCCCCCC(=O)OCC(C[N+](C)(C)C)OC(=O)CCCCCCCCCCCCCCC` (stereo not drawn) [DPTAP-16:0, 1,2-palmitoyl-3-trimethylammonium propane], “much lower expression of CD80”.
With `CCCCCCCCCCCCCCCCCC(=O)OCC(C[N+](C)(C)C)OC(=O)CCCCCCCCCCCCCCCCC` (stereo not drawn) [DSTAP-18:0, 1,2-distearoyl-3-trimethylammonium propane], the “Stimulation of CD 80 expression” value with DC 2.4 cells is listed as “much lower expression of CD80”.
Same read-out and setting: next, `CCCCCCCCCCCCOS(=O)(=O)[O-].[Na+]` [SDS, sodium dodecyl sulfate]: “could not activate”.
In the case of “E7 peptide: MHC class I restricted peptide from the HPV 16 E7 protein (aa 49 to 57, RAHYNIVTF), given in PBS”, in assay [1], the “CTL activity” value is on record as “no CTL induction”. For the same compound, the “mice surviving beyond 20 days after TC-1 cell injection” value in the assay with TC-1 cells stood at 20%. For the same compound, the “Tumor growth after treatment” value in the assay with tumor is “kept growing rapidly”.
